Measurements taken from publication PMC5836806 (Bioorganic & medicinal chemistry letters, 2018).

Molecular target: T1, human mPGES-1 (Homo sapiens, UniProt O14684)
T1 sequence (O14684 1-152): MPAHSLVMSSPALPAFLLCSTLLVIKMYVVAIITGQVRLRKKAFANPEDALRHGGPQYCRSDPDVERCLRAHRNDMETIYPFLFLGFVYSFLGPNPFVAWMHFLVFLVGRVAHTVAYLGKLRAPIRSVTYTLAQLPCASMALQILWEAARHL
Assay: in vitro inhibition of human mPGES-1
Type: biochemical
Settings: Table 2

SMILES	activity against human mPGES-1 in words
CCOc1ccc(-c2nn(-c3ccc(Cl)cc3)cc2/C=C(\C#N)C(=O)O)cc1 [13a]	submicromolar potency
CCOc1ccc(-c2nn(-c3ccc(Cl)cc3)cc2C=C(C#N)C#N)cc1 [13b]	not very active
CCOc1ccc(-c2nn(-c3ccc(Cl)cc3)cc2/C=C(\C#N)C(N)=O)cc1 [13c]	not very active

Next, values leading:

activity against human mPGES-1 in words	SMILES
submicromolar potency	CCCCCCOc1ccc(-c2nn(-c3ccc(Cl)cc3)cc2/C=C(\C#N)C(=O)O)cc1 [14a]
not very active	CCCCCCOc1ccc(-c2nn(-c3ccc(Cl)cc3)cc2C=C(C#N)C#N)cc1 [14b]
not very active	CCCCCCOc1ccc(-c2nn(-c3ccc(Cl)cc3)cc2/C=C(\C#N)C(N)=O)cc1 [14c]

System: COX-1/2 (mixed COX-1 and COX-2)
Assay: inhibition of mixed COX-1 and COX-2
Type: biochemical
Settings: summary

SMILES	inhibition against COX-1/2 in words
CCCCCCOc1ccc(-c2nn(-c3ccc(Cl)cc3)cc2/C=C2/SC(=O)N(CC(=O)O)C2=O)cc1 [14f]	without significant inhibition
